Read-outs that look alike come from different tables or passages of the source.
What was measured:
Pneumocystis carinii = test: Effect on Pneumocystis carinii viability (ATP-driven bioluminescent assay); type: cell-based; details: Pneumocystis carinii, read-out: Percent of Control Mean
Procedure: 3. Pneumocystis carinii. The effect of CAY-1 on Pneumocystis carinii was determined as described previously [Cushion et al., Antimicrob. Agents Chemother., 1997, 41:379-384, herein incorporated by reference]. This assay is based on an ATP-driven bioluminescent reaction and was used to determine the concentration of CAY-1 which decreased the P. carinii ATP pools.

Candida species = details: a number of Candida species; cited from earlier work

Question: Which results are given for `N=C(N)c1ccc(OCCCCCOc2ccc(C(=N)N)cc2)cc1` [Pentamidine, reference compound]?
Answer: activity at 2.9 µM (Pneumocystis carinii; 24 h): 46.2%; activity at 29 µM (Pneumocystis carinii; 24 h): 5.4%; activity at 2.9 µM (Pneumocystis carinii; 48 h): 22%; activity at 29 µM (Pneumocystis carinii; 48 h): 3.5%; activity at 2.9 µM (Pneumocystis carinii; 72 h): 3.9%; activity at 29 µM (Pneumocystis carinii; 72 h): 1.2%

Question: With `CC1(C)S[C@@H]2[C@H](NC(=O)[C@H](N)c3ccccc3)C(=O)N2[C@H]1C(=O)O` [Ampicillin, reference compound] as the compound, how does the activity at 29 µM (Pneumocystis carinii; 24 h, Day 1, 10 μg/ml, 29 μM) read?
Answer: 96%

Question: And the activity at 29 µM (Pneumocystis carinii; 48 h, Day 2, 10 μg/ml, 29 μM)?
Answer: 94.7%

Question: What about the activity at 29 µM (Pneumocystis carinii; 72 h, Day 3, 10 μg/ml, 29 μM) of the same compound?
Answer: 94.8%

Question: With cyclainorin as the compound, how does the inhibitory properties (Candida species) read?
Answer: inhibitory properties

Question: Which inhibitory properties (Candida species) does the source give for `CC1(C)[C@@H](O[C@@H]2OC[C@H](O[C@@H]3O[C@H](CO)[C@@H](O)[C@H](O)[C@H]3O[C@@H]3OC[C@H](O)[C@H](O)[C@H]3O)[C@H](O)[C@H]2O[C@@H]2O[C@H](CO)[C@@H](O)[C@H](O)[C@H]2O)CC[C@]2(C)[C@H]3CC[C@]45OC[C@@]6(CC[C@](C)(C=O)C[C@H]64)[C@H](O)C[C@@]5(C)[C@]3(C)CC[C@@H]12` [deglucocyclamin] here?
Answer: inhibitory properties

— patent US6310091A, “Fungicidal saponin, CAY-1, and isolation thereof from Capsium species fruit” (The United States of America as represented by the …, priority 2000, dated 2001)
